Reference: patent US20140128747A1, “ASSESSING E[…] USING A BLOOD PRESSURE CUFF” (THE REGENTS OF THE UNIVERSITY OF CALIFORNIA, priority 2011, published 2014)
“Also recorded” adds a separate entry of the source.

Experiments:
NO synthase = test: Cuff single pulse waveform after endothelial stimulation with NO synthase blocked; assay type: in vivo, human; conditions: cuff inflated to 70 mmHg, FIG. 3
Source text: Both the amplitude and slope of the rising edge of the pulse increase markedly after endothelial stimulation.
In an artery with intact endothelial function, both pulse height (maximal cross-sectional arterial area) and compliance (maximum slope of the rising edge) increase markedly over baseline. […] FIG. 4 illustrates how a five minute cuff occlusion and the ensuring reactive hyperemia lead to major increases in area change per pulse and the maximum derivative of the area per pulse. Both metrics return to baseline levels after 20 minutes. FIG. 5 confirms the repeatability of the protocol by illustrating the effects of a series of two cuff occlusion periods. We see from FIG. 6 that only a small slow drift in the measured quantities occurs when no reactive hyperemic stimulus is applied.
A stimulus is then applied to the subject. Any of a number of stimuli expected to alter endothelial function are contemplated. Such stimuli include, for example, occlusion of blood flow, and/or application of one or more drugs to the subject. Illustrative drugs include, for example, drugs that act as NO agonists (e.g. acetylcholine), β2-adrenergic agonists such as albuterol, acoustic/mechanical tissue vibration, transcutaneous low frequency ultrasound (see, e.g., Iida et al. (2006) J. Amer. Coll. Cardiol., 48(3): 532-537), and the like. […]

human subjects = test: Blood pressure cuff measurement of pulse amplitude (arterial area) and compliance response to sublingual nitroglycerin; assay type: in vivo; conditions: 0.4 mg sublingual NG, FIG. 10, all cases where NG was administered
Source text: We contend that such studies are unnecessary in order to make a determination that a method is effective in assessing endothelial function. Physical methods for arterial EF evaluation typically measure changes in the material properties of the artery. […] A major advantage of this method is that response to NG is intact even in individuals with endothelial dysfunction, so there is no need to perform a correlation analysis between two measurements.
We examined three individuals in the age-range 28-38. All subjects had Framingham risk scores of 1% or less, and had no history of cardiovascular disease. Each individual was assessed at least three times before and after RH induced by five minutes of suprasystolic cuff occlusion. […] Sensitivity to a 0.4 mg dose of sublingual NG was assessed three times in two individuals.
Sensitivity to a 0.4 mg dose of sublingual NG was assessed three times in two individuals.
We studied a single quantity relating to the recorded pressure data: the pulse amplitude, which we posit is proportional to the arterial area. During the post stimulus interval, pressure data from the cuff were recorded approximately every 80 seconds, for a period of 30 seconds. During each recording interval, the cuff was inflated to 70 mmHg, which was always below the measured diastolic pressure of the subject. […]

Row | Structure (SMILES) | effect on increase of pulse amplitude (height) and slope of rising edge after endothelial stimulation (NO synthase) | increase in relative change in area (human subjects) | increase in relative change in compliance (human subjects)
1 | COC(=O)[C@@H](N)CCCNC(=N)N[N+](=O)[O-] [L-NAME] | greatly attenuates this response; also recorded: greatly attenuated |  | 
2 | O=[N+]([O-])OCC(CO[N+](=O)[O-])O[N+](=O)[O-] [NG, nitroglycerin] |  | more than 30% | more than 30%
